Our source for the MIC values is DBAASP.

Structures are written as SMILES. ≈ marks a conversion by molar mass, not a printed value. A value given as a limit tells only on which side of the number the result lay.

Test systems include Escherichia coli JJ2489; Escherichia coli BW25113; Escherichia coli J2210; Escherichia coli MC1041; Escherichia coli JW0013; Candida albicans MDM8; Micrococcus luteus A270; Escherichia coli SBS 363.
What all share (assay): ≥ marks a high value that may be exact or a test limit, other limits are often not marked, values filed in µg/mL are converted to µM
Assay [1] relates to Staphylococcus aureus ATCC 33591.
In assay [2] the test system is Candida albicans ATCC 10231.
For assay [3], the system named is Cryptococcus neoformans ATCC 32045.
In assay [4] the test system is Pseudomonas aeruginosa ATCC 10145.
The subject of assay [5] is Escherichia coli ATCC 2592.
For assay [6], the system named is Escherichia coli JW2778 ΔygdD.
Assay [7] deals with Salmonella enterica subsp. enterica serovar Enteritidis MH91989.
The subject of assay [8] is Escherichia coli JW0368 ΔsbmA.
In assay [9] the test system is Salmonella typhimurium SL1344.
Assay [10] relates to Pseudomonas aeruginosa H1001.
Assay [11] concerns Staphylococcus aureus ATCC 29213.
The test system of assay [12] is Serratia marcescens ATCC 4112.
Assay [13] deals with Candida tropicalis IOC 4560.
The test system of assay [14] is Enterobacter cloacae beta-12.
In assay [15] the test system is Bacillus megaterium ATCC 10778.
In assay [16] the test system is Staphylococcus epidermidis ATCC 12228.

For the compound `C[C@H](NC(=O)[C@H](Cc1ccccc1)NC(=O)[C@H](CCCN=C(N)N)NC(=O)[C@H](CCCN=C(N)N)NC(=O)[C@H](C)NC(=O)[C@H](Cc1ccccc1)NC(=O)[C@H](CCCN=C(N)N)NC(=O)[C@H](CCCN=C(N)N)NC(=O)[C@H](C)NC(=O)[C@H](Cc1ccccc1)NC(=O)[C@H](CCCN=C(N)N)NC(=O)[C@H](CCCN=C(N)N)NC(=O)[C@H](C)NC(=O)[C@H](Cc1ccccc1)NC(=O)[C@H](CCCN=C(N)N)NC(=O)[C@H](CCCN=C(N)N)NC(=O)[C@H](C)NC(=O)[C@H](Cc1ccccc1)NC(=O)[C@H](CCCN=C(N)N)NC(=O)[C@H](CCCN=C(N)N)NC(=O)[C@H](C)NC(=O)[C@H](Cc1ccccc1)NC(=O)[C@H](CCCN=C(N)N)NC(=O)[C@H](CCCN=C(N)N)NC(=O)[C@H](C)NC(=O)[C@H](Cc1ccccc1)NC(=O)[C@@H](N)CCCN=C(N)N)C(=O)N[C@@H](CCCN=C(N)N)C(=O)O` [RFARRFARRFARRFARRFARRFARRFAR], the MIC in assay [1] is not below 47.4 µM; in assay [2], 94.7 µM (≈ 354 µg/mL); in assay [3], 23.6 µM (≈ 88 µg/mL); in [4] it was 16.6 µM (≈ 62 µg/mL); in [5], 11.9 µM (≈ 44.5 µg/mL).

As for `CC(C)C[C@H](NC(=O)[C@H](CCCN=C(N)N)NC(=O)[C@@H]1CCCN1C(=O)[C@H](CCCN=C(N)N)NC(=O)[C@@H]1CCCN1C(=O)[C@@H]1CCCN1C(=O)[C@H](CCCN=C(N)N)NC(=O)[C@@H]1CCCN1C(=O)[C@H](CCC(N)=O)NC(=O)[C@@H]1CCCN1C(=O)[C@H](CCCCN)NC(=O)[C@H](Cc1ccc(O)cc1)NC(=O)[C@@H](NC(=O)[C@@H]1CCCN1C(=O)[C@H](CCCN=C(N)N)NC(=O)[C@H](CC(N)=O)NC(=O)[C@H](CC(N)=O)NC(=O)CN)C(C)C)C(=O)O` [GNNRPVYKPQPRPPRPRL], the MIC in [6] came to 0.133 µM (≈ 0.285 µg/mL); against Escherichia coli JJ2489, 0.133 µM (≈ 0.285 µg/mL); against Escherichia coli BW25113, 0.067 µM (≈ 0.144 µg/mL); in the assay on Escherichia coli J2210, 0.252 µM (≈ 0.54 µg/mL); in assay [7] it was 0.096 µM (≈ 0.206 µg/mL); against Escherichia coli MC1041, 0.133 µM (≈ 0.285 µg/mL). The MIC against Escherichia coli JW0013 was determined as 0.062 µM (≈ 0.133 µg/mL); in assay [8], 0.096 µM (≈ 0.206 µg/mL); in assay [9], 0.192 µM (≈ 0.411 µg/mL).

In turn, `CC[C@H](C)[C@H](NC(=O)[C@H](CCCN=C(N)N)NC(=O)[C@H](CCCN=C(N)N)NC(=O)[C@@H]1CCCN1C(=O)[C@@H]1CCCN1C(=O)[C@H](CCCN=C(N)N)NC(=O)[C@@H]1CCCN1C(=O)[C@H](CCCN=C(N)N)NC(=O)[C@@H]1CCCN1C(=O)[C@H](CC(C)C)NC(=O)[C@H](Cc1ccc(O)cc1)NC(=O)[C@@H]1CCCN1C(=O)[C@@H]1CCCN1C(=O)[C@H](CCCCN)NC(=O)[C@H](CC(=O)O)NC(=O)[C@@H](N)C(C)C)C(=O)N[C@@H](Cc1ccc(O)cc1)C(=O)N[C@@H](CS)C(=O)N[C@@H](CCCN=C(N)N)C(=O)NCC(=O)O` [VDKPPYLPRPRPPRRIYCRG] yielded an MIC in assay [10] of 0.0575 µM (≈ 0.14 µg/mL).

In the case of `C[C@H](NC(=O)[C@H](CCCCN)NC(=O)[C@H](Cc1ccccc1)NC(=O)[C@H](C)NC(=O)[C@H](CCCCN)NC(=O)[C@H](Cc1ccccc1)NC(=O)[C@H](C)NC(=O)[C@H](CCCCN)NC(=O)[C@H](Cc1ccccc1)NC(=O)[C@H](C)NC(=O)[C@H](CCCCN)NC(=O)[C@H](Cc1ccccc1)NC(=O)[C@H](C)NC(=O)[C@H](CCCCN)NC(=O)[C@H](Cc1ccccc1)NC(=O)[C@H](C)NC(=O)[C@H](CCCCN)NC(=O)[C@@H](N)Cc1ccccc1)C(=O)O` [FKAFKAFKAFKAFKAFKA], the MIC is not below 238 µM in assay [1]; 169 µM (≈ 354 µg/mL) in assay [2]; 2.7 µM (≈ 5.66 µg/mL) in assay [3]; not below 47.7 µM in assay [4]; 21.2 µM (≈ 44.5 µg/mL) in assay [5].

For the compound `CC(C)C[C@H](NC(=O)[C@H](CCCN=C(N)N)NC(=O)[C@@H]1CCCN1C(=O)[C@H](CCCN=C(N)N)NC(=O)[C@@H]1CCCN1C(=O)[C@@H]1CCCN1C(=O)[C@H](CCCN=C(N)N)NC(=O)[C@@H]1CCCN1C(=O)[C@H](CCC(N)=O)NC(=O)[C@@H]1CCCN1C(=O)[C@H](CCCCN)NC(=O)[C@H](Cc1ccc(O)cc1)NC(=O)[C@@H](NC(=O)[C@@H]1CCCN1C(=O)[C@H](CCCCN)NC(=O)[C@H](CC(N)=O)NC(=O)[C@H](CC(N)=O)NC(=O)CN)C(C)C)C(=O)O` [GNNKPVYKPQPRPPRPRL], the MIC in [6] amounted to 0.192 µM (≈ 0.406 µg/mL); in the assay with Escherichia coli JJ2489, 0.252 µM (≈ 0.533 µg/mL); in the assay with Escherichia coli BW25113, 0.096 µM (≈ 0.203 µg/mL); with Escherichia coli J2210, 0.267 µM (≈ 0.565 µg/mL); in assay [7] it was 0.133 µM (≈ 0.281 µg/mL); in the assay on Escherichia coli MC1041 it was 0.192 µM (≈ 0.406 µg/mL). Besides, the minimal inhibitory concentration (MIC) stood at 0.096 µM (≈ 0.203 µg/mL) against Escherichia coli JW0013, 0.192 µM (≈ 0.406 µg/mL) in [8] and 0.192 µM (≈ 0.406 µg/mL) in [9].

`CC[C@H](C)[C@H](NC(=O)[C@H](CCCN=C(N)N)NC(=O)[C@H](CCCN=C(N)N)NC(=O)[C@@H]1CCCN1C(=O)[C@H](CCCN=C(N)N)NC(=O)[C@H](CCCN=C(N)N)NC(=O)[C@@H]1CCCN1C(=O)[C@H](CCCN=C(N)N)NC(=O)[C@@H]1CCCN1C(=O)[C@H](CC(C)C)NC(=O)[C@H](Cc1ccc(O)cc1)NC(=O)[C@@H]1CCCN1C(=O)[C@@H]1CCCN1C(=O)[C@H](CCCCN)NC(=O)[C@H](CC(=O)O)NC(=O)[C@@H](N)C(C)C)C(=O)N[C@@H](Cc1ccc(O)cc1)C(=O)N[C@@H](CC(N)=O)C(=O)N[C@@H](CCCN=C(N)N)C(=O)NCC(=O)O` [VDKPPYLPRPRRPRRIYNRG]: in assay [10], the MIC was 0.0878 µM (≈ 0.22 µg/mL).

`C[C@H](NC(=O)[C@H](CCCCN)NC(=O)[C@H](Cc1ccccc1)NC(=O)[C@H](C)NC(=O)[C@H](CCCCN)NC(=O)[C@H](Cc1ccccc1)NC(=O)[C@H](C)NC(=O)[C@H](CCCCN)NC(=O)[C@H](Cc1ccccc1)NC(=O)[C@H](C)NC(=O)[C@H](CCCCN)NC(=O)[C@H](Cc1ccccc1)NC(=O)[C@H](C)NC(=O)[C@H](CCCCN)NC(=O)[C@H](Cc1ccccc1)NC(=O)[C@H](C)NC(=O)[C@H](CCCCN)NC(=O)[C@H](Cc1ccccc1)NC(=O)[C@H](C)NC(=O)[C@H](CCCCN)NC(=O)[C@H](Cc1ccccc1)NC(=O)[C@H](C)NC(=O)[C@H](CCCCN)NC(=O)[C@H](Cc1ccccc1)NC(=O)[C@H](C)NC(=O)[C@H](CCCCN)NC(=O)[C@@H](N)Cc1ccccc1)C(=O)O` [FKAFKAFKAFKAFKAFKAFKAFKAFKA]: the MIC in assay [1] turned out to be 14 µM (≈ 43.8 µg/mL); in [2], 113 µM (≈ 354 µg/mL); in [3] it was 28.1 µM (≈ 88 µg/mL); in assay [4], 6.38 µM (≈ 20 µg/mL); in [5], 14 µM (≈ 43.8 µg/mL).

Turning to `CC[C@H](C)[C@H](NC(=O)[C@H](CCCN=C(N)N)NC(=O)[C@H](CCCN=C(N)N)NC(=O)[C@@H]1CCCN1C(=O)[C@@H]1CCCN1C(=O)[C@H](CCCN=C(N)N)NC(=O)[C@@H]1CCCN1C(=O)[C@H](CCCN=C(N)N)NC(=O)[C@@H]1CCCN1C(=O)[C@H](CC(C)C)NC(=O)[C@H](Cc1ccc(O)cc1)NC(=O)[C@@H]1CCCN1C(=O)[C@@H]1CCCN1C(=O)[C@H](CCCCN)NC(=O)[C@H](CC(=O)O)NC(=O)[C@@H](N)C(C)C)C(=O)N[C@@H](Cc1ccc(O)cc1)C(=O)N[C@@H](CC(N)=O)C(=O)N[C@@H](CCCCN)C(=O)NCC(=O)O` [VDKPPYLPRPRPPRRIYNKG], the MIC in assay [10] came to 0.107 µM (≈ 0.26 µg/mL).

For `CC(C)C[C@H](NC(=O)[C@H](C)NC(=O)[C@H](CCCCN)NC(=O)[C@H](CC(C)C)NC(=O)[C@@H](N)Cc1ccccc1)C(=O)N[C@@H](Cc1c[nH]c2ccccc12)C(=O)N[C@@H](CCCCN)C(=O)N[C@H](C(=O)N[C@@H](C)C(=O)N[C@@H](CCCCN)C(=O)N[C@@H](CCCCN)C(=O)N[C@H](C(=O)N[C@@H](Cc1ccccc1)C(N)=O)C(C)C)C(C)C` [FLKALWKVAKKVF], the MIC in assay [11] came out at 0.8 µM (≈ 1.26 µg/mL); in assay [12], 0.1 µM (≈ 0.158 µg/mL); in assay [13] it was 0.8 µM (≈ 1.26 µg/mL); in assay [14], 3.1 µM (≈ 4.89 µg/mL); against Candida albicans MDM8, 1.6 µM (≈ 2.52 µg/mL); against Micrococcus luteus A270, 0.4 µM (≈ 0.631 µg/mL). The values for the MIC (in assay [15]; in assay [16]; in the assay on Escherichia coli SBS 363) were 0.4 µM (≈ 0.631 µg/mL), 3.1 µM (≈ 4.89 µg/mL) and 1.6 µM (≈ 2.52 µg/mL), respectively.
